# According to paper PMC3726599, “A Metabolically-Stabilized Phosphonate Analog of Lysophosphatidic Acid Attenuates Collagen-Induced Arthritis” (PLoS ONE, 2013):
# Experiments:
# [1] = target: T1, recombinant ATX (Homo sapiens, UniProt Q13822); test: Amplex Red activity assay, LPC hydrolysis by recombinant ATX (Echelon); format: biochemical; conditions: substrate Km, recombinant ATX from Echelon
# T1 construct: purchased SinoBiological Inc (main data); R&D (additional Km values)
# Procedure: BrP-LPA inhibition was also tested with the more sensitive reagent Amplex Red based on the Amplex™ Red PLD assay kit (Molecular Probes, Interchim, Montluçon, France) originally designed for the measurement of the PLD activity, [49]. All reactions were performed with purified ATX (2 nM) from Echelon at 37°C. The ability of ATX to cleave LPC was detected using a coupled assay that monitors the release of choline using Amplex Red (10 μΜ), choline oxidase (0.2 Units/ml) and horseradish peroxidise (2 Units/ml) The rate of fluorescence increase was measured in a fluorescence plate reader (Tecan Infinite 200 microplate reader from Tecan Trading AG, Switzerland) for up to 80 minutes; the fluorescence increase was linear during that time-frame for all cases. Rates were normalized to control reactions that contained all reaction components except for the test compound.
# (§1) The biochemistry of lyso-PLD was assessed by following the kinetics data using a wide panel of different ATX substrates [FS-3, different LPC species (14:0, 16:0, 18:0, 18:1)], three different recombinant ATX proteins (R&D, Sino-Biological and Echelon) and three different ATX activity assays (FS-3, TOOS, Amplex Red). The ATX activity was measured at different substrate concentrations (typically from 1-1000 μM) in order to examine whether ATX follows Michaelis-Menten kinetics. The Michaelis constant (Km) was obtained by fitting the substrate dependence of V (ATX activity) to a rectangular hyperbola using the non-linear regression analysis of the statistical software package Prism 4.0 (GraphPad Software, Inc.). Km and Vmax were evaluated from the rectangular hyperbola curve with the use of GraphPad software.
# (§2) For in vitro inhibition measurements, BrP-LPA was dissolved in water as a stock solution (4 mM) and appropriate dilutions were made in water. The inhibition of ATX by BrP-LPA was measured employing 2 nM recombinant ATX, 50 μΜ LPC (14:0, 16:0, 18:0) and 0.01 to 100 μmol/L of BrP-LPA (final concentrations). The in vitro inhibition of ATX by BrP-LPA was evaluated with three different assays (FS-3, Amplex Red, and TOOS). […] BrP-LPA was also tested for its ability to inhibit mouse plasma ATX activity. Diluted mouse plasma was used as the source of ATX and the analysis of inhibition was made with TOOS as the in vitro inhibition assay.
# The inhibition model (competitive, noncompetitive, or mixed type inhibition) was evaluated by graphical analysis with Lineweaver–Burk double reciprocal plots (1/[velocity] versus 1/[substrate]) and Cornish-Bowden plot ([substrate]/[velocity] versus [Inhibitor]). These plots were generated by the measurement of ATX activity in the presence of different BrP-LPA concentrations (0–10 μΜ) and increased amounts of 16:0 LPC (100, 200, 400 μΜ). The inhibition constants (Ki) and IC50 values were determined using the mean values obtained from two independent experiments. The relative remaining ATX activity or LPA levels in the presence of the BrP-LPA was expressed as a percentage of the corresponding control value (ATX activity, LPA levels without inhibitor). The IC50 value was determined graphically by plotting the log concentration of BrP-LPA versus relative remaining ATX activity or LPA levels of each test sample using the sigmoid dose–response fitting method (Prism® software). The IC50 (concentration of BrP-LPA sufficient to inhibit ATX activity or diminish LPA levels by 50%) was calculated by the equation f = y0+a/(1+exp(-(x-x0)/b)) given by SigmaPlot 11.0 (Systat Software, Inc., San Jose, CA, USA).
# Ki was calculated using the equation of Cheng and Prusoff: Ki = IC50/1+[S]/Km, where Ki is the binding affinity of the inhibitor, IC50 is the functional strength of the inhibitor, [S] is substrate concentration and Km is the concentration of substrate at which enzyme activity is half maximal. Whereas the IC50 value for a compound may vary between experiments depending on experimental conditions, Ki is an absolute value. […]
# [2] = target: T1, recombinant ATX; test: TOOS activity assay, LPC hydrolysis by recombinant ATX; format: biochemical; conditions: substrate Km, TOOS
# Procedure: ATX/LysoPLD activity was assessed based on the amount of choline released from LPC with the use of TOOS (N-ethyl-N-(2-hydoroxy-3-sulfopropyl)-3-methylaniline) reagent. In this assay ATX-mediated LPC-liberated choline is oxidised by choline oxidase to betaine and hydrogen peroxide (H2O2). The latter in the presence of horseradish peroxidase reacts with TOOS and 4-aminoantipyrene (4-AAP) to form a pink quinoneimine dye measured at 555 nm.
# Diluted plasma samples (100 fold dilution; final EDTA concentration 0.5 mM) or recombinant ATX protein (2 nM) were incubated with LPC in the presence of 100 mmol/l Tris–HCl/pH 9.0, 500 mmol/l NaCl, 5 mmol/l MgCl2, 5 mmol/l CaCl2, 60 μM CoCl2 and 0.05% Triton X-100 for 3 h at 37°C at a final volume of 100 μl. It should be noted that EDTA was used not only as an anticoagulant but also as an inhibitor of ATX activity ex vivo [46], in order to suppress artificial LPA production during blood withdrawal and plasma preparation; this is because the same samples were used in phospholipid measurements.
# The liberated choline was detected by adding 100 μl of a color mix containing 4-AAP and TOOS (0.3 mM), horseradish peroxidase (5.3 UnitmL^−1) and choline oxidase (2 UnitmL^−1). Absorbance was measured at 555 nm and data were analyzed using the statistical software package Prism 4.0 (Graphpad Software Inc, La Jolla, CA, USA). For each sample and control the absorbance was plotted against time and the slope (da/min) for the linear (steady-state) portion of each reaction profile was calculated. Absorbance units were converted to nmol of choline/min/ml by comparison with a choline standard curve or by use of the extinction coefficient for the quinoneimine dye according to the following equation: [drawing 1] Where Vt* is the total volume of reaction in ml (0.2 ml); Vs* is the volume of sample in ml; e is the millimolar extinction coefficient of quinoneimine dye under the assay conditions (e = e = […]); and 1/2: Factor based on the fact that 1 mol of hydrogen peroxide produces 1/2 mol of quinoneimine dye.
# as §1, §2
# The inhibition model (competitive, noncompetitive, or mixed type inhibition) was evaluated by graphical analysis with Lineweaver–Burk double reciprocal plots (1/[velocity] versus 1/[substrate]) and Cornish-Bowden plot ([substrate]/[velocity] versus [Inhibitor]). These plots were generated by the measurement of ATX activity in the presence of different BrP-LPA concentrations (0–10 μΜ) and increased amounts of 16:0 LPC (100, 200, 400 μΜ). […]
# [3] = system: K/BxN serum transfer RA model; set-up: method as in PMID 18491295, PMID 22354754; conditions: cited from earlier work
# [4] = system: COX-2 expression from SFs; set-up: method as in PMID 18802115; conditions: cited from earlier work
# [5] = set-up: method as in PMID 22354754; conditions: cited from earlier work
# [6] = recombinant ATX from Sinobiological Inc
SMILES,Km [1] [µM],Km ([2]; recombinant ATX from R&D) [µM],"Km [2, 6] [µM]",other results
"CCCCCCCCCCCCCC(=O)OC[C@@H](O)COP(=O)([O-])OCC[N+](C)(C)C [14:0 LPC, reference compound]",80 ± 9,,,
"CCCCCCCCCCCCCCCC(=O)OC[C@@H](O)COP(=O)([O-])OCC[N+](C)(C)C [16:0 LPC, reference compound]",,90,60 ± 11,
"CCCCCCCCCCCCCCCCCC(=O)OC[C@@H](O)COP(=O)([O-])OCC[N+](C)(C)C [18:0 LPC, reference compound]",116 ± 13,114,82 ± 11,
"CCCCCCCC/C=C\CCCCCCCC(=O)OC[C@@H](O)COP(=O)([O-])OCC[N+](C)(C)C [18:1 LPC, reference compound]",,,55 ± 10,
Cc1noc(-c2ccc(CSCCC(=O)O)cc2)c1NC(=O)OC(C)c1ccccc1Cl (stereo not shown) [ki16425],,,,arthritis severity [3]: reduction of arthritis severity; LPA-mediated COX-2 expression [4]: inhibit LPA-mediated COX-2 expression; half-life [5]: very short half-life
